The test system of the assay is HeLa cells. The experiment in a line: Proliferation assay, crystal violet staining. To be noted: Homo sapiens, 96 h.
Setting [1] is: read-out: Inhibition of HeLa cell proliferation, HeLa cells, 4 days incubation.

Read-outs that look alike come from different tables or passages of the source.

As for `CC(C)n1nccc1-c1cc(N2CCOC[C@H]2C)nc2c(-c3ccn[nH]3)nccc12` [Example 124, 4-(1-isopropyl-1H-pyrazol-5-yl)-2-[(3R)-3-methylmorpholin-4-yl]-8-(1H-pyrazol-5-yl)-1,7-naphthyridine], the IC50 under setting [1] was 156 nM. Regarding `CC(C)COP(C)(=O)c1cc(N2CCOC[C@H]2C)nc2c(-c3ccn[nH]3)nccc12` (stereo partly drawn) [Example 127, isobutyl methyl{2-[(3R)-3-methylmorpholin-4-yl]-8-(1H-pyrazol-5-yl)-1,7-naphthyridin-4-yl}phosphinate], the IC50 under setting [1] was determined as 578 nM. On the same count and under the same terms, the figure for `C[C@@H]1COCCN1c1cc(C(C)(C)O)c2ccnc(-c3ccn[nH]3)c2n1` [Example 128, 2-{2-[(3R)-3-methylmorpholin-4-yl]-8-(1H-pyrazol-5-yl)-1,7-naphthyridin-4-yl}propan-2-ol] is 770 nM; for `CCC(O)(CC)c1cc(N2CCOC[C@H]2C)nc2c(-c3ccn[nH]3)nccc12` [Example 129, 3-{2-[(3R)-3-methylmorpholin-4-yl]-8-(1H-pyrazol-5-yl)-1,7-naphthyridin-4-yl}pentan-3-ol] it is 686 nM. Still for that read-out and setting: as for `C[C@@H]1COCCN1c1cc(-c2cncc(Cl)c2)c2ccnc(-c3ccn[nH]3)c2n1` [Example 130, 4-(5-chloropyridin-3-yl)-2-[(3R)-3-methylmorpholin-4-yl]-8-(1H-pyrazol-5-yl)-1,7-naphthyridine], the figure is 374 nM. On the same count and under the same terms, as for `C[C@@H]1COCCN1c1cc(-c2ccc(F)cc2N)c2ccnc(-c3ccn[nH]3)c2n1` [Example 131, 5-fluoro-2-{2-[(3R)-3-methylmorpholin-4-yl]-8-(1H-pyrazol-5-yl)-1,7-naphthyridin-4-yl}aniline], the figure is 349 nM. For the molecule `C[C@@H]1COCCN1c1cc(-c2cccc(S(C)(=O)=O)c2F)c2ccnc(-c3ccn[nH]3)c2n1` [Example 132, 4-[2-fluoro-3-(methylsulfonyl)phenyl]-2-[(3R)-3-methylmorpholin-4-yl]-8-(1H-pyrazol-5-yl)-1,7-naphthyridine], under setting [1], the IC50 came to 507 nM. The same measure, in the same setting: the figure for `C[C@@H]1COCCN1c1cc(-c2ccnn2C2COC2)c2ccnc(-c3ccn[nH]3)c2n1` [Example 133, 2-[(3R)-3-methylmorpholin-4-yl]-4-[1-(oxetan-3-yl)-1H-pyrazol-5-yl]-8-(1H-pyrazol-5-yl)-1,7-naphthyridine] is 1070 nM. Still for that read-out and setting: as for `C[C@@H]1COCCN1c1cc(-c2ccc(N3CCCC3)cc2F)c2ccnc(-c3ccn[nH]3)c2n1` [Example 134, 4-[2-fluoro-4-(pyrrolidin-1-yl)phenyl]-2-[(3R)-3-methylmorpholin-4-yl]-8-(1H-pyrazol-5-yl)-1,7-naphthyridine], the figure is 1530 nM. Same read-out and setting: the figure for `COCc1noc(C)c1-c1cc(N2CCOC[C@H]2C)nc2c(-c3ccn[nH]3)nccc12` [Example 135, 4-[3-(methoxymethyl)-5-methyl-1,2-oxazol-4-yl]-2-[(3R)-3-methylmorpholin-4-yl]-8-(1H-pyrazol-5-yl)-1,7-naphthyridine] is 1820 nM; for `Cc1nnc(-c2cc(N3CCOC[C@H]3C)nc3c(-c4ccn[nH]4)nccc23)o1` [Example 136, 2-[(3R)-3-methylmorpholin-4-yl]-4-(5-methyl-1,3,4-oxadiazol-2-yl)-8-(1H-pyrazol-5-yl)-1,7-naphthyridine] it is 575 nM. `C[C@@H]1COCCN1c1cc(N=S(C)(=O)c2ccc(F)cc2)c2ccnc(-c3ccn[nH]3)c2n1` (stereo partly drawn) [Example 138, 4-{[(4-fluorophenyl)(methyl)oxido-λ^6-sulfanylidene]amino}-2-[(3R)-3-methylmorpholin-4-yl]-8-(1H-pyrazol-5-yl)-1,7-naphthyridine]: under setting [1], the IC50 was found to be 619 nM. Still for that read-out and setting: the figure for `C[C@@H]1COCCN1c1cc(N=S(C)(=O)c2ccccc2F)c2ccnc(-c3ccn[nH]3)c2n1` (stereo partly drawn) [Example 139, 4-{[(2-fluorophenyl)(methyl)oxido-λ^6-sulfanylidene]amino}-2-[(3R)-3-methylmorpholin-4-yl]-8-(1H-pyrazol-5-yl)-1,7-naphthyridine] is 1370 nM; for `C[C@@H]1COCCN1c1cc(P(C)(C)=O)c2ccnc(-c3ccn[nH]3)c2n1` [Example 142, 4-(dimethylphosphoryl)-2-[(3R)-3-methylmorpholin-4-yl]-8-(1H-pyrazol-5-yl)-1,7-naphthyridine] it is 1590 nM; for `CCP(=O)(CC)c1cc(N2CCOC[C@H]2C)nc2c(-c3ccn[nH]3)nccc12` [Example 143, 4-(diethylphosphoryl)-2-[(3R)-3-methylmorpholin-4-yl]-8-(1H-pyrazol-5-yl)-1,7-naphthyridine] it is 543 nM. `CCOP(=O)(CC(C)C)c1cc(N2CCOC[C@H]2C)nc2c(-c3ccn[nH]3)nccc12` (stereo partly drawn) [Example 144, ethyl isobutyl{2-[(3R)-3-methylmorpholin-4-yl]-8-(1H-pyrazol-5-yl)-1,7-naphthyridin-4-yl}phosphinate]: the IC50 (read-out: Inhibition of HeLa cell proliferation) was above 3000 nM. On to `CC(C)Cn1nccc1-c1cc(N2CCOC[C@H]2C)nc2c(-c3ccn[nH]3)nccc12` [Example 146, 4-(1-isobutyl-1H-pyrazol-5-yl)-2-[(3R)-3-methylmorpholin-4-yl]-8-(1H-pyrazol-5-yl)-1,7-naphthyridine], for which the IC50 under setting [1] was 1110 nM.

`C[C@@H]1COCCN1c1cc(-c2cnc(S(C)(=O)=O)c(F)c2)c2ccnc(-c3ccn[nH]3)c2n1` [Example 147, 4-[5-fluoro-6-(methylsulfonyl)pyridin-3-yl]-2-[(3R)-3-methylmorpholin-4-yl]-8-(1H-pyrazol-5-yl)-1,7-naphthyridine]: the IC50 under setting [1] is 953 nM. On the same count and under the same terms, as for `C[C@@H]1COCCN1c1cc(N2CCOCC2)nc2c(-c3ccn[nH]3)nccc12` [Example 148, 4-[(3R)-3-methylmorpholin-4-yl]-2-(morpholin-4-yl)-8-(1H-pyrazol-5-yl)-1,7-naphthyridine], the figure is 805 nM. Still for that read-out and setting: as for `C[C@@H]1COCCN1c1cc(-c2cccc(F)n2)c2ccnc(-c3ccn[nH]3)c2n1` [Example 152, 4-(6-fluoropyridin-2-yl)-2-[(3R)-3-methylmorpholin-4-yl]-8-(1H-pyrazol-5-yl)-1,7-naphthyridine], the figure is 671 nM.

For `CCn1cnc(-c2cc(N3CCOC[C@H]3C)nc3c(-c4ccn[nH]4)nccc23)c1` [Example 153, 4-(1-ethyl-1H-imidazol-4-yl)-2-[(3R)-3-methylmorpholin-4-yl]-8-(1H-pyrazol-5-yl)-1,7-naphthyridine], the IC50 under setting [1] stood at 759 nM. Still for that read-out and setting: as for `C[C@@H]1COCCN1c1cc(-c2cccnc2N)c2ccnc(-c3ccn[nH]3)c2n1` [Example 155, 3-{2-[(3R)-3-methylmorpholin-4-yl]-8-(1H-pyrazol-5-yl)-1,7-naphthyridin-4-yl}pyridin-2-amine], the figure is 959 nM.

For `C[C@@H]1COCCN1c1cc(-c2ccn(CCF)n2)c2ccnc(-c3ccn[nH]3)c2n1` [Example 158, 4-[1-(2-fluoroethyl)-1H-pyrazol-3-yl]-2-[(3R)-3-methylmorpholin-4-yl]-8-(1H-pyrazol-5-yl)-1,7-naphthyridine], the IC50 under setting [1] is 328 nM.

Regarding `C[C@@H]1COCCN1c1cc(-c2ccnn2CCF)c2ccnc(-c3ccn[nH]3)c2n1` [Example 159, 4-[1-(2-fluoroethyl)-1H-pyrazol-5-yl]-2-[(3R)-3-methylmorpholin-4-yl]-8-(1H-pyrazol-5-yl)-1,7-naphthyridine], the IC50 under setting [1] came out at 61.6 nM. Regarding `C[C@@H]1COCCN1c1cc(-c2ccn(CCO)n2)c2ccnc(-c3ccn[nH]3)c2n1` [Example 160, 2-(3-{2-[(3R)-3-methylmorpholin-4-yl]-8-(1H-pyrazol-5-yl)-1,7-naphthyridin-4-yl}-1H-pyrazol-1-yl)ethanol], under setting [1], the IC50 was determined as 451 nM. On the same count and under the same terms, the figure for `C[C@@H]1COCCN1c1cc(-c2ccn(CC(C)(C)O)n2)c2ccnc(-c3ccn[nH]3)c2n1` [Example 161, 2-methyl-1-(3-{2-[(3R)-3-methylmorpholin-4-yl]-8-(1H-pyrazol-5-yl)-1,7-naphthyridin-4-yl}-1H-pyrazol-1-yl)propan-2-ol] is 588 nM; for `C[C@@H]1CN(c2cc(N3CCOCC3)nc3c(-c4ccn[nH]4)nccc23)CCO1` [Example 162, 4-[(2R)-2-methylmorpholin-4-yl]-2-(morpholin-4-yl)-8-(1H-pyrazol-5-yl)-1,7-naphthyridine] it is 1220 nM; for `C[C@H]1CN(c2cc(N3CCOCC3)nc3c(-c4ccn[nH]4)nccc23)CCO1` [Example 170, 4-[(2S)-2-methylmorpholin-4-yl]-2-(morpholin-4-yl)-8-(1H-pyrazol-5-yl)-1,7-naphthyridine] it is 2410 nM. Same read-out and setting: the figure for `C[C@@H]1COCCN1c1cc(OC(F)F)c2ccnc(-c3ccn[nH]3)c2n1` [Example 172, 4-(difluoromethoxy)-2-[(3R)-3-methylmorpholin-4-yl]-8-(1H-pyrazol-5-yl)-1,7-naphthyridine] is 2100 nM; for `CC(C)(O)c1cc(N2CCOCC2)nc2c(-c3ccn[nH]3)nccc12` [Example 173, 2-[2-(morpholin-4-yl)-8-(1H-pyrazol-5-yl)-1,7-naphthyridin-4-yl]propan-2-ol] it is above 3000 nM; for `O=C1CN(c2cc(N3CCOCC3)nc3c(-c4ccn[nH]4)nccc23)CCN1` [Example 176, 4-[2-(morpholin-4-yl)-8-(1H-pyrazol-5-yl)-1,7-naphthyridin-4-yl]piperazin-2-one] it is 2520 nM.

Take `CP(C)(=O)c1cc(N2CCOCC2)nc2c(-c3ccn[nH]3)nccc12` [Example 177, 4-(dimethylphosphoryl)-2-(morpholin-4-yl)-8-(1H-pyrazol-5-yl)-1,7-naphthyridine]: the IC50 under setting [1] was above 3000 nM. Still for that read-out and setting: as for `C[C@@H]1CN(c2cc(N3CCOCC3)nc3c(-c4ccn[nH]4)nccc23)C[C@H](C)N1` [Example 179, 4-[(cis)-3,5-dimethylpiperazin-1-yl]-2-(morpholin-4-yl)-8-(1H-pyrazol-5-yl)-1,7-naphthyridine], the figure is above 3000 nM; as for `c1cc(-c2nccc3c(N4C[C@@H]5C[C@H]4CO5)cc(N4CCOCC4)nc23)[nH]n1` [Example 185, 2-(morpholin-4-yl)-4-[(1S,4S)-2-oxa-5-azabicyclo[2.2.1]hept-5-yl]-8-(1H-pyrazol-5-yl)-1,7-naphthyridine], above 3000 nM.
